# Experimental data taken from US20220346372A1, “Compositions For Preparing Microemulsion, Microemulsion, Method For Producing Composition And Microemulsion, And Use Of Mircoemulsion” (Moresco Corporation, priority 2019, published 2022).
# Assay: LogP, flask shaking method (OECD guideline, n-octanol/water)
# Format: physicochemical
# Settings: 1-octanol-water partition coefficient
# Source text: Here, LogP is a common logarithmic value of a 1-octanol-water or 1-octanol-buffer partition coefficient of a chemical substance. In the present specification, LogP is a value measured by a flask shaking method based on OECD GUIDELINE FOR THE TESTING OF CHEMICALS, “Partition Coefficient (n-octanol/water): Shake Flask Method”. A chemical substance having a higher LogP has a higher degree of lipophilicity. In other words, a chemical substance having a higher LogP has a higher degree of fat-solubility.
row,Compound,LogP of the poorly water-soluble functional component
1,"COc1ccc2c(c1)c(CC(=O)O)c(C)n2C(=O)c1ccc(Cl)cc1 [indomethacin, Indomethacin]",4.25
2,Tocotrienol,7.68
3,"Cc1c(C)c2c(c(C)c1O)CCC(C)(CCCC(C)CCCC(C)CCCC(C)C)O2 (racemic) [tocopherol, DL-α-Tocopherol]",8.84

# Same assay, conditions: 1-octanol-water partition coefficient, read-out: LogP of the poorly water-soluble functional component
row,Compound,logP
1,"CC(=O)O[C@H]1C(=O)[C@@]2(C)[C@H]([C@H](OC(=O)c3ccccc3)[C@]3(O)C[C@H](OC(=O)[C@H](O)[C@@H](NC(=O)c4ccccc4)c4ccccc4)C(C)=C1C3(C)C)[C@]1(OC(C)=O)CO[C@@H]1C[C@@H]2O [paclitaxel, Paclitaxel]",3.2
2,"CC1CCC(C(C)C)C(O)C1 (single isomer, unassigned; (-)) [menthol, (−)-Menthol]",2.68
3,"Clc1ccc(C(c2ccc(Cl)cc2)C(Cl)(Cl)Cl)cc1 [DDT, dichlorodiphenyltrichloroethane]",6.5
4,"COC1=C(OC)C(=O)C(C/C=C(\C)CC/C=C(\C)CC/C=C(\C)CC/C=C(\C)CC/C=C(\C)CC/C=C(\C)CC/C=C(\C)CC/C=C(\C)CC/C=C(\C)CCC=C(C)C)=C(C)C1=O [CoQ10, coenzyme Q10]",11
5,"COc1ccc2c(c1)c(CC(=O)O)c(C)n2C(=O)c1ccc(Cl)cc1 [indomethacin, Indomethacin]",4.25
6,"C[C@]12CC[C@H]3[C@@H](CCC4=CC(=O)CC[C@@]43C)[C@@H]1CC[C@@H]2O [testosterone, Testosterone]",2.99
7,"COc1cc(/C=C/C(=O)CC(=O)/C=C/c2ccc(O)c(OC)c2)ccc1O [curcumin, Curcumin]",3.62
